These results are taken from patent US4419123A, “Herbicidal 4-trifluoromethyl-3'-carbon-substituted-4'-substituted diphenyl ethers” (Rohm and Haas Company, priority 1981, dated 1983).

The nature of experiment [1]: Preemergence herbicidal activity (% control) against monocot weeds. The experiment is classed as in vivo. Conditions: pre-emergence, 336 h, average, about two weeks after application, read-out: Herbicidal activity (% control), preemergence, monocots; for activity at 2241.7 g/ha: 2 lb./A.; for activity at 4483.4 g/ha: 4 lb./A. The text has this:
(§1) barnyardgrass (Echinochloa crusgalli) crabgrass (Digitaria spp.) nutsedge (Cyperus esculentus)
(§2) At 2 and 4 pounds per acre:
(§3) **Bermudagrass (Cynodon dactylon)
(§4) *downy brome (Bromus tectorum) foxtail (Setaria faberii)
(§5) Johnsongrass (Sorghum halepense) […]
(§6) quackgrass (Agropyron repens)
(§7) *ryegrass (Lolium perenne)
(§8) *wild oats (Avena factua)
(§9) *yellow millet (Panicum miliaceum)
(§10) The following test procedure is employed.

Experiment [2] can be described thus: Postemergence herbicidal activity (% control) against monocot weeds. Conditions: post-emergence, 336 h, average, about two weeks after application, read-out: Herbicidal activity (% control), postemergence, monocots; for activity at 2241.7 g/ha: 2 lb./A.; for activity at 4483.4 g/ha: 4 lb./A. The experiment is classed as in vivo.
From the text: as §1, §2, §3, §4, §5, §6, §7, §8, §9, §10

Experiment [3] is described as follows: Preemergence herbicidal activity (% control) against dicot weeds. To be noted: pre-emergence, 336 h.
Experiment [4] in a line: Postemergence herbicidal activity (% control) against dicot weeds. Conditions: post-emergence, 336 h.
Where [5] appears, read: read-out: Herbicidal activity (% control), preemergence, dicots, 2 lb./A., average, about two weeks after application.
Setting [6] is: read-out: Herbicidal activity (% control), preemergence, dicots, 4 lb./A., average, about two weeks after application.
Where [7] appears, read: read-out: Herbicidal activity (% control), postemergence, dicots, 2 lb./A., average, about two weeks after application.
Where [8] appears, read: read-out: Herbicidal activity (% control), postemergence, dicots, 4 lb./A., average, about two weeks after application.
Setting [9] is: read-out: Herbicidal activity (% control), preemergence, dicots.
[10] abbreviates: read-out: Herbicidal activity (% control), postemergence, dicots.

As to `CC(Oc1cc(Oc2ccc(C(F)(F)F)cc2Cl)ccc1[N+](=O)[O-])C(=O)O` (stereo not drawn) [Example 25, 2-Chloro-α,α,α-trifluoro-p-tolyl-3-(1-carboxyethoxy)-4-nitrophenyl ether], the activity at 2241.7 g/ha in experiment [1] was 40%; in experiment [2], 88%; in experiment [3] (setting [5]), 93%; in experiment [4] (setting [7]), 100%. The activity at 4483.4 g/ha in experiment [1] was found to be 87%; in experiment [2] it was 97%; in experiment [3] (setting [6]) it was 88%; in experiment [4] (setting [8]) it was 100%.
As to `Nc1cc(Oc2ccc(C(F)(F)F)cc2Cl)ccc1[N+](=O)[O-]` [Example 27], the activity at 2241.7 g/ha was 74% in experiment [1], 99% in experiment [2], 90% in experiment [3] (setting [5]) and 100% in experiment [4] (setting [7]). In addition, the activity at 4483.4 g/ha in experiment [1] came out at 76%; in experiment [2] it was 82%; in experiment [3] (setting [6]) it was 98%; in experiment [4] (setting [8]), 100%.
As to `O=[N+]([O-])c1ccc(Oc2ccc(C(F)(F)F)cc2Cl)cc1N1CCOCC1` [Example 28, 2-chloro-α,α,α-trifluoro-p-tolyl-3-morpholino-4-nitrophenyl ether], the activity at 2241.7 g/ha turned out to be 79% in experiment [1], 73% in experiment [2] and 100% in experiment [4] (setting [7]). Further, the activity at 4483.4 g/ha in experiment [1] was 74%; in experiment [2], 73%; in experiment [3] (setting [6]), 95%; in experiment [4] (setting [8]), 99%.
As for `C#CCCOc1cc(Oc2ccc(C(F)(F)F)cc2Cl)ccc1[N+](=O)[O-]` [Example 29], the activity at 2241.7 g/ha was determined as 66% in experiment [1], 97% in experiment [2], 84% in experiment [3] (setting [5]) and 100% in experiment [4] (setting [7]). Besides, the activity at 4483.4 g/ha in experiment [1] is 74%; in experiment [2], 79%; in experiment [3] (setting [6]), 73%; in experiment [4] (setting [8]) it was 100%.
For `CC(=O)CCOc1cc(Oc2ccc(C(F)(F)F)cc2Cl)ccc1[N+](=O)[O-]` [Example 31], the activity at 2241.7 g/ha in experiment [1] is 68%; in experiment [2], 68%; in experiment [3] (setting [5]), 69%; in experiment [4] (setting [7]), 100%. The activity at 4483.4 g/ha was 74% in experiment [1], 61% in experiment [2], 99% in experiment [3] (setting [6]) and 100% in experiment [4] (setting [8]).
With `CC(=O)C(C)Oc1cc(Oc2ccc(C(F)(F)F)cc2Cl)ccc1[N+](=O)[O-]` (stereo not shown) [Example 32], the activity at 2241.7 g/ha worked out at 81% in experiment [1] and 100% in experiment [2]. Besides, the activity at 4483.4 g/ha in experiment [1] is 86%; in experiment [2] it was 86%; in experiment [3] (setting [6]), 100%; in experiment [4] (setting [8]) it was 100%.
In the case of `CNC(=O)Oc1cc(Oc2ccc(C(F)(F)F)cc2Cl)ccc1[N+](=O)[O-]` [Example 33], the activity at 2241.7 g/ha in experiment [1] came to 79%; in experiment [2], 65%; in experiment [3] (setting [9]), 74%; in experiment [4] (setting [10]) it was 100%. In addition, the activity at 4483.4 g/ha in experiment [1] came to 53%; in experiment [2] it was 32%; in experiment [3] (setting [9]), 99%; in experiment [4] (setting [10]), 98%.
`O=C(CCl)Nc1cc(Oc2ccc(C(F)(F)F)cc2Cl)ccc1[N+](=O)[O-]` [Example 35, 2-chloro-α,α,α-trifluoro-p-tolyl-3-chloroacetamido-4-nitrophenyl ether]: the activity at 2241.7 g/ha in experiment [1] was 60%; in experiment [2], 63%; in experiment [3] (setting [5]) it was 72%; in experiment [4] (setting [7]), 80%. Further, the activity at 4483.4 g/ha in experiment [1] was found to be 40%; in experiment [2], 45%; in experiment [4] (setting [8]), 98%.
For the molecule `O=[N+]([O-])c1ccc(Oc2ccc(C(F)(F)F)cc2Cl)cc1OCC1CO1` (stereo not shown) [Example 38], the activity at 2241.7 g/ha was 62% in experiment [1], 51% in experiment [2], 68% in experiment [3] (setting [5]) and 58% in experiment [4] (setting [7]). Further, the activity at 4483.4 g/ha in experiment [1] was 47%; in experiment [2], 43%; in experiment [3] (setting [6]), 86%; in experiment [4] (setting [8]), 98%.
In the case of `O=[N+]([O-])c1ccc(Oc2ccc(C(F)(F)F)cc2Cl)cc1OCC(O)CO` (stereo not drawn) [Example 39, 2-chloro-α,α,α-trifluoro-p-tolyl-3-(2,3-dihydroxypropoxy)-4-nitrophenyl ether], the activity at 2241.7 g/ha amounted to 77% in experiment [1], 61% in experiment [2], 80% in experiment [3] (setting [5]) and 100% in experiment [4] (setting [7]). In addition, the activity at 4483.4 g/ha in experiment [1] came to 65%; in experiment [2], 64%; in experiment [3] (setting [6]), 99%; in experiment [4] (setting [8]), 98%.
For the molecule `CCCN(CCC)c1cc(Oc2ccc(C(F)(F)F)cc2Cl)ccc1[N+](=O)[O-]` [Example 41], the activity at 2241.7 g/ha in experiment [1] is 84%; in experiment [2], 56%; in experiment [3] (setting [5]), 62%; in experiment [4] (setting [7]), 94%. The activity at 4483.4 g/ha in experiment [1] was 60%; in experiment [2] it was 71%; in experiment [3] (setting [6]) it was 96%; in experiment [4] (setting [8]), 95%.
`CS(=O)(=O)CCOc1cc(Oc2ccc(C(F)(F)F)cc2Cl)ccc1[N+](=O)[O-]` [Example 42]: the activity at 2241.7 g/ha in experiment [1] was 83%; in experiment [2], 63%; in experiment [3] (setting [5]), 60%; in experiment [4] (setting [7]), 88%. The activity at 4483.4 g/ha in experiment [1] is 62%; in experiment [2], 38%; in experiment [3] (setting [6]), 80%; in experiment [4] (setting [8]), 98%.
Regarding `CN(CCO)c1cc(Oc2ccc(C(F)(F)F)cc2Cl)ccc1[N+](=O)[O-]` [Example 43], the activity at 2241.7 g/ha stood at 99% in experiment [1], 61% in experiment [2], 100% in experiment [3] (setting [5]) and 80% in experiment [4] (setting [7]). In addition, the activity at 4483.4 g/ha amounted to 0% in experiment [1], 2% in experiment [2], 48% in experiment [3] (setting [6]) and 47% in experiment [4] (setting [8]).
`CNC(=O)Nc1cc(Oc2ccc(C(F)(F)F)cc2Cl)ccc1[N+](=O)[O-]` [Example 44]: the activity at 2241.7 g/ha in experiment [1] was determined as 0%; in experiment [2], 7%; in experiment [3] (setting [5]), 17%; in experiment [4] (setting [7]), 10%. Moreover, the activity at 4483.4 g/ha in experiment [1] turned out to be 66%; in experiment [2], 60%; in experiment [3] (setting [6]), 96%; in experiment [4] (setting [8]), 98%.
Turning to `CCSC(=O)Nc1cc(Oc2ccc(C(F)(F)F)cc2Cl)ccc1[N+](=O)[O-]` [Example 45], the activity at 2241.7 g/ha came out at 68% in experiment [1], 53% in experiment [2], 77% in experiment [3] (setting [5]) and 78% in experiment [4] (setting [7]). Further, the activity at 4483.4 g/ha in experiment [1] stood at 13%; in experiment [2], 17%; in experiment [3] (setting [6]) it was 58%; in experiment [4] (setting [8]), 88%.
For `CCSC(=O)N(C(=O)SCC)c1cc(Oc2ccc(C(F)(F)F)cc2Cl)ccc1[N+](=O)[O-]` [Example 46], the activity at 2241.7 g/ha turned out to be 34% in experiment [1], 0% in experiment [2], 87% in experiment [3] (setting [5]) and 4% in experiment [4] (setting [7]). In addition, the activity at 4483.4 g/ha in experiment [1] is 0%; in experiment [2], 0%; in experiment [3] (setting [6]) it was 20%; in experiment [4] (setting [8]), 30%.
Turning to `N#Cc1cc(Oc2ccc(C(F)(F)F)cc2Cl)ccc1[N+](=O)[O-]` [Example 47, 2-Chloro-α,α,α-trifluoro-p-tolyl-3-cyano-4-nitrophenyle ther], the activity at 2241.7 g/ha in experiment [1] is 80%; in experiment [2] it was 24%; in experiment [4] (setting [7]), 84%. Besides, the activity at 4483.4 g/ha was found to be 61% in experiment [1], 11% in experiment [2], 40% in experiment [3] (setting [6]) and 72% in experiment [4] (setting [8]).
Take `CC(Oc1cc(Oc2ccc(C(F)(F)F)cc2Cl)ccc1[N+](=O)[O-])C(N)=O` (stereo not drawn) [Example 51, 2-chloro-α,α,α-trifluoro-p-tolyl-3-(1-carbamoylethoxy)-4-nitrophenyl ether]: the activity at 2241.7 g/ha in experiment [1] was determined as 96%; in experiment [2], 86%; in experiment [3] (setting [5]) it was 100%; in experiment [4] (setting [7]), 98%. For the same molecule, the activity at 4483.4 g/ha in experiment [1] was 79%; in experiment [2] it was 75%; in experiment [3] (setting [6]) it was 100%; in experiment [4] (setting [8]), 100%.
